Assay results taken from patent publication US20170137387A1, “PHARMACOLOGICALLY ACTIVE QUINAZOLINEDIONE DERIVATIVES” (ORION CORPORATION, priority 2014, published 2017).
One block for each molecule: values may come before it.

Legend:
[1] = target: T1, human GABAB1 and GABAB2 receptor subunits (Homo sapiens, UniProt O75899+Q9UBS5); assay: Potentiation of GABA dose-response, FLIPR calcium assay; format: cell-based; conditions: compound at 10 μM; EC50 of GABA divided by EC50 of GABA in the presence of positive allosteric modulator
T1 construct: expressed in transfected cells; host or cells: CHO cells
Description: (§1) CHO cells expressing the human GABAB1 and GABAB2 receptor subunits co-expressing promiscuous Galpha16 proteins to force couple the receptor to the intracellular calcium signalling pathway were used to study GABAB pharmacology in vitro. The cells were maintained at 37° C. in a 5% CO2 95% air atmosphere in HAM F-12 medium supplemented with 10% foetal bovine serum and selection antibiotics.
(§2) The day before the experiment the cells were detached and plated into black-walled clear bottom 384-well plates at a cell density of 20 000 cells per well. The growth medium was removed and the cells were incubated with FLIPR Calcium 5 Assay reagent (Molecular Devices, CA, USA) diluted 1:1 in Probenecid-Ringer for 1 h at 37° C. in dark. Probenecid-Ringer buffer consisted of 150 mM NaCl, 3 mM KCl, 1.2 mM MgCl2, 1 mM CaCl2, 5 mM glucose, 20 mM 2-(4-(2-hydroxyethyl)piperazin-1-yl)ethanesulfonic acid (HEPES), and 2.5 mM Probenecid (pH 7.4 adjusted with 1.0 M NaOH and osmolarity adjusted to […]). Compounds were dissolved in Probenecid-Ringer. […] The samples were excited at 470-495 nm and emission was detected at 515-575 nm. All experiments were performed at 37° C.
(§3) Baseline fluorescence minimum was subtracted from maximum for the calculation of agonism and positive allosteric modulator pharmacology. Both in the agonism mode and in the allosteric mode, the efficacy was related to the intrinsic activity (IA) of the endogenous agonist GABA at 30 μM (positive allosteric modulator efficacy at 10 μM/GABA efficacy or agonism efficacy at 30 μM/GABA efficacy). To determine potentiation of GABA dose-response, the compounds, at a concentration of 10 μM diluted in Probenecid-Ringer, were added by FLIPR tetra followed by addition of GABA (diluted in water in the concentration range 0.123-10 μM). The EC50 values were determined using a four-parameter logistic fit (model 205 in ActivityBase XE). The EC50 value of GABA was divided with the EC50 value of GABA in the presence of positive allosteric modulator to determine potentiation of GABA dose-response EC50 value.

[2] = target: T1, human GABAB1 and GABAB2 receptor subunits; assay: Agonism and positive allosteric modulator pharmacology in vitro, two-addition FLIPR calcium assay; format: cell-based; conditions: CHO cells co-expressing Galpha16; for IA (GABAB agonism): agonism efficacy at 30 μM / GABA efficacy at 30 μM; for IA (GABAB positive allosteric modulation): positive allosteric modulator efficacy at 10 μM (with EC10.5 GABA) / GABA efficacy at 30 μM
Description: as §1, §2
A two-addition protocol was used to determine agonism and positive allosteric modulator pharmacology in the same assay using a kinetic read out. Agonism pharmacology of compounds was studied in the first addition in the concentration range 0.123-30 μM in quadruplicate at each concentration. In the second addition, a low (EC10.5) concentration of GABA was applied to detect the positive allosteric modulator pharmacology of the compounds to be studied. The EC10.5 concentration was determined from the GABA EC50 value using the formula ECF≈(F/(100-F))^1/H·EC50, wherein F is the fraction of full response and H is Hill slope.
as §3

T1 sequence (Q9UBS5 15-961 limits assumed): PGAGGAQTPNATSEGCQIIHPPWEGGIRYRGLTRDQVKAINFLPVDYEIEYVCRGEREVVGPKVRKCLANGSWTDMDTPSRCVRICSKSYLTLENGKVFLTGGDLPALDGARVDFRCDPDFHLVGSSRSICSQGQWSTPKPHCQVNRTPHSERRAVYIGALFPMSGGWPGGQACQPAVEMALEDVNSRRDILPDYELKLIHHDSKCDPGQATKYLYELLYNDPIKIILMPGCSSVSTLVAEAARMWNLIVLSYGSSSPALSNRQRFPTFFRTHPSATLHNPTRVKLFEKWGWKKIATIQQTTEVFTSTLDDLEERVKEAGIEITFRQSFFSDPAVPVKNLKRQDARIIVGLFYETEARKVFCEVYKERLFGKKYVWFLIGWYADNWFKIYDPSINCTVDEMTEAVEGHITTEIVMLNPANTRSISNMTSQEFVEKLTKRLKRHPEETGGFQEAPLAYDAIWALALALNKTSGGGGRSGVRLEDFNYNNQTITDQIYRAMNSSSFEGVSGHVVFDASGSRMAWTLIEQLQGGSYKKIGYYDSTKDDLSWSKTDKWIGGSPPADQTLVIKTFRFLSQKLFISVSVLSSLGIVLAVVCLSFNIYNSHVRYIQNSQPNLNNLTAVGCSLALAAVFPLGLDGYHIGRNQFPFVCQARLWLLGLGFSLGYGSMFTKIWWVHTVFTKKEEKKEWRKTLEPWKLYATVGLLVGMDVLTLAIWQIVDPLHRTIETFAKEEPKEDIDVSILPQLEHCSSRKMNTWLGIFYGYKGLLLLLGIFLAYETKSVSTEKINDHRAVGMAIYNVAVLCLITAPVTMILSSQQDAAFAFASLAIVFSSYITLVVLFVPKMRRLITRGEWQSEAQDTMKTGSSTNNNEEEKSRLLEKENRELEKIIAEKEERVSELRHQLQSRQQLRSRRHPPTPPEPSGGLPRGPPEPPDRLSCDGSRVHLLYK
T1 sequence (O75899 42-941): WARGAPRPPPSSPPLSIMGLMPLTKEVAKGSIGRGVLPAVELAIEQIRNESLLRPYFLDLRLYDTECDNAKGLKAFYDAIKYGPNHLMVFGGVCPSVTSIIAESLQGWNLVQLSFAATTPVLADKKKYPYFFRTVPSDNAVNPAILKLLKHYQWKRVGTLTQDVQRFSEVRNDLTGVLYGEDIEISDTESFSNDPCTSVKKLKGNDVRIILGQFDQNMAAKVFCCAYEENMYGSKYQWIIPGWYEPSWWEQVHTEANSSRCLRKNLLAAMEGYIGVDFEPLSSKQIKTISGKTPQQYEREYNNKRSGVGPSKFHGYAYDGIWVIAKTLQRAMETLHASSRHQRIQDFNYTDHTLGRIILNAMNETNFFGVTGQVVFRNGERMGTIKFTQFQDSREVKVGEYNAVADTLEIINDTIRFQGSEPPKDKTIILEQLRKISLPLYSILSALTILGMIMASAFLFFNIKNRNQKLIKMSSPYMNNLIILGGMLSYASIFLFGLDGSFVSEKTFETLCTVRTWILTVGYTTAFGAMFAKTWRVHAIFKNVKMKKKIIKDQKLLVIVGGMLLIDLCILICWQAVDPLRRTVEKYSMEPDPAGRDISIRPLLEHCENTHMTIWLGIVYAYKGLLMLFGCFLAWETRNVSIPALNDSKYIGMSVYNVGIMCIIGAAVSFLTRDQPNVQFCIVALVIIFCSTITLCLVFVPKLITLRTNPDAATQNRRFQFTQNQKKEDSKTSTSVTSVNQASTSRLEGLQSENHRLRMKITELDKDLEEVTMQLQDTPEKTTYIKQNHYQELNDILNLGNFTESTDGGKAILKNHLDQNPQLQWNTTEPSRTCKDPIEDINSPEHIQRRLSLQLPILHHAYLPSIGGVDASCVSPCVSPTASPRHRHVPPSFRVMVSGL

SMILES: CC(C)(O)Cn1c(=O)n(Cc2ccc(Cl)c(Cl)c2)c(=O)c2ccc(C(F)(F)F)cc21 [Example 2, 3-(3,4-Dichlorobenzyl)-1-(2-hydroxy-2-methylpropyl)-7-(trifluoromethyl)quinazoline-2,4(1H,3H)-dione]
Potentiation of GABA (fold) [1]: 11 fold | IA (GABAB agonism) [2]: 0.14 | IA (GABAB positive allosteric modulation) [2]: 0.65

SMILES: Cn1c(=O)n(C2CCCc3ccccc32)c(=O)c2ccc(C(F)(F)F)cc21 (stereo not drawn) [Example 12, 1-Methyl-3-(1,2,3,4-tetrahydronaphthalen-1-yl)-7-(trifluoromethyl)quinazoline-2,4(1H,3H)-dione]
Potentiation of GABA (fold) [1]: 25.8 fold | IA (GABAB agonism) [2]: 0.20 | IA (GABAB positive allosteric modulation) [2]: 0.67

SMILES: Cn1c(=O)n(Cc2ccc(Br)cc2)c(=O)c2ccc(Cl)cc21 [Example 18, 3-(4-Bromobenzyl)-7-chloro-1-methylquinazoline-2,4(1H,3H)-dione]
Potentiation of GABA (fold) [1]: 1.6 fold | IA (GABAB agonism) [2]: 0.06 | IA (GABAB positive allosteric modulation) [2]: 0.43

SMILES: CC(C)(C)C(=O)Cn1c(=O)n(Cc2ccc(Br)cc2)c(=O)c2ccc(F)cc21 [Example 26, 3-(4-Bromobenzyl)-1-(3,3-dimethyl-2-oxobutyl)-7-fluoroquinazoline-2,4(1H,3H)-dione]
Potentiation of GABA (fold) [1]: 1.7 fold | IA (GABAB agonism) [2]: 0.08 | IA (GABAB positive allosteric modulation) [2]: 0.48

SMILES: Cn1c(=O)n(Cc2ccc(Br)cc2)c(=O)c2ccc(F)cc21 [Example 33, 3-(4-Bromobenzyl)-7-fluoro-1-methylquinazoline-2,4(1H,3H)-dione]
Potentiation of GABA (fold) [1]: 4.8 fold | IA (GABAB agonism) [2]: 0.23 | IA (GABAB positive allosteric modulation) [2]: 0.45

SMILES: CC(C(N)=O)n1c(=O)n(Cc2ccc(Br)cc2)c(=O)c2ccc(F)cc21 (stereo not drawn) [Example 37, 2-(3-(4-Bromobenzyl)-7-fluoro-2,4-dioxo-3,4-dihydroquinazolin-1(2H)-yl)propanamide]
Potentiation of GABA (fold) [1]: 1.9 fold | IA (GABAB agonism) [2]: 0.21 | IA (GABAB positive allosteric modulation) [2]: 0.39

SMILES: CC(C)n1c(=O)n(Cc2ccc(Br)cc2)c(=O)c2ccc(F)cc21 [Example 38, 3-(4-Bromobenzyl)-7-fluoro-1-isopropylquinazoline-2,4(1H,3H)-dione]
Potentiation of GABA (fold) [1]: 3.5 fold | IA (GABAB agonism) [2]: 0.13 | IA (GABAB positive allosteric modulation) [2]: 0.21

SMILES: CC(C)(O)Cn1c(=O)n(Cc2ccc(Br)cc2)c(=O)c2ccc(F)cc21 [Example 39, 3-(4-Bromobenzyl)-7-fluoro-1-(2-hydroxy-2-methylpropyl)quinazoline-2,4(1H,3H)-dione]
Potentiation of GABA (fold) [1]: 23.1 fold | IA (GABAB agonism) [2]: 0.30 | IA (GABAB positive allosteric modulation) [2]: 0.85

SMILES: Cn1c(=O)n(Cc2ccc([N+](=O)[O-])cc2)c(=O)c2ccc(F)cc21 [Example 40, 7-Fluoro-1-methyl-3-(4-nitrobenzyl)quinazoline-2,4(1H,3H)-dione]
Potentiation of GABA (fold) [1]: 1.5 fold | IA (GABAB agonism) [2]: 0.04 | IA (GABAB positive allosteric modulation) [2]: 0.26

SMILES: CC(C)(O)Cn1c(=O)n(Cc2ccc(Cl)c(Oc3ccccc3)c2)c(=O)c2ccc(F)cc21 [Example 41, 3-(4-Chloro-3-phenoxybenzyl)-7-fluoro-1-(2-hydroxy-2-methylpropyl)quinazoline-2,4(1H,3H)-dione]
Potentiation of GABA (fold) [1]: 2.8 fold | IA (GABAB agonism) [2]: 0.10 | IA (GABAB positive allosteric modulation) [2]: 0.47

SMILES: C[C@H](c1ccc(Cl)cc1)n1c(=O)c2ccc(F)cc2n(C)c1=O [Example 42, (R)-3-(1-(4-Chlorophenyl)ethyl)-7-fluoro-1-methylquinazoline-2,4(1H,3H)-dione]
Potentiation of GABA (fold) [1]: 7.3 fold | IA (GABAB agonism) [2]: 0.18 | IA (GABAB positive allosteric modulation) [2]: 0.37

More lines, now with the values ahead:

Potentiation of GABA (fold) [1]: 3.8 fold | IA (GABAB agonism) [2]: 0.17 | IA (GABAB positive allosteric modulation) [2]: 0.51
SMILES: Cn1c(=O)n(C2(c3ccc(Cl)cc3)CC2)c(=O)c2ccc(F)cc21 [Example 43, 3-(1-(4-Chlorophenyl)cyclopropyl)-7-fluoro-1-methylquinazoline-2,4(1H,3H)-dione]

Potentiation of GABA (fold) [1]: 31 fold | IA (GABAB agonism) [2]: 0.28 | IA (GABAB positive allosteric modulation) [2]: 0.61
SMILES: CC(C)(O)Cn1c(=O)n(Cc2ccc(Br)cc2)c(=O)c2cc(F)c(Cl)cc21 [Example 49, 3-(4-Bromobenzyl)-7-chloro-6-fluoro-1-(2-hydroxy-2-methylpropyl)quinazoline-2,4(1H,3H)-dione]

Potentiation of GABA (fold) [1]: 22 fold | IA (GABAB agonism) [2]: 0.04 | IA (GABAB positive allosteric modulation) [2]: 0.73
SMILES: CC1(Cn2c(=O)n(Cc3ccc(Br)cc3)c(=O)c3cc(F)c(Cl)cc32)COC1 [Example 50, 3-(4-Bromobenzyl)-7-chloro-6-fluoro-1-((3-methyloxetan-3-yl)methyl)quinazoline-2,4(1H,3H)-dione]

Potentiation of GABA (fold) [1]: 89 fold | IA (GABAB agonism) [2]: 0.20 | IA (GABAB positive allosteric modulation) [2]: 0.85
SMILES: CC(C)(O)Cn1c(=O)n(Cc2ccc(Br)cc2)c(=O)c2cc(F)c(F)c(F)c21 [Example 60, 3-(4-Bromobenzyl)-6,7,8-trifluoro-1-(2-hydroxy-2-methylpropyl)quinazoline-2,4(1H,3H)-dione]

Potentiation of GABA (fold) [1]: 12.7 fold | IA (GABAB agonism) [2]: 0.04 | IA (GABAB positive allosteric modulation) [2]: 0.77
SMILES: CC1(C)Cn2c(=O)n(Cc3ccc(Br)cc3)c(=O)c3cc(F)c(F)c(c32)O1 [Example 66, 6-(4-Bromobenzyl)-9,10-difluoro-2,2-dimethyl-2H-[1,4]oxazino[2,3,4-ij]quinazoline-5,7(3H,6H)-dione]

Potentiation of GABA (fold) [1]: 9.5 fold | IA (GABAB agonism) [2]: 0.02 | IA (GABAB positive allosteric modulation) [2]: 0.71
SMILES: CC1(C)Cn2c(=O)n(Cc3ccc(Cl)cc3)c(=O)c3ccc(Cl)c(c32)O1 [Example 67, 10-Chloro-6-(4-chlorobenzyl)-2,2-dimethyl-2H-[1,4]oxazino[2,3,4-ij]quinazoline-5,7(3H,6H)-dione]

Potentiation of GABA (fold) [1]: 24.5 fold | IA (GABAB agonism) [2]: 0.18 | IA (GABAB positive allosteric modulation) [2]: 0.71
SMILES: C[C@@H](O)Cn1c(=O)n(Cc2ccc(Cl)cc2)c(=O)c2ccc(Cl)c(F)c21 [Example 82, (R)-7-Chloro-3-(4-chlorobenzyl)-8-fluoro-1-(2-hydroxypropyl)quinazoline-2,4(1H,3H)-dione]

Potentiation of GABA (fold) [1]: 33.4 fold | IA (GABAB agonism) [2]: 0.10 | IA (GABAB positive allosteric modulation) [2]: 0.86
SMILES: COc1c(F)cc2c(=O)n(Cc3ccc(Br)cc3)c(=O)n3c2c1OC(C)(C)C3 [Example 84, 6-(4-Bromobenzyl)-9-fluoro-10-methoxy-2,2-dimethyl-2H-[1,4]oxazino[2,3,4-ij]quinazoline-5,7(3H,6H)-dione]

Potentiation of GABA (fold) [1]: 3.3 fold | IA (GABAB agonism) [2]: 0.11 | IA (GABAB positive allosteric modulation) [2]: 0.44
SMILES: CCn1c(=O)n(Cc2ccc(Br)cc2)c(=O)c2ccc(F)cc21 [Example 87, 3-(4-Bromobenzyl)-1-ethyl-7-fluoroquinazoline-2,4(1H,3H)-dione]

Potentiation of GABA (fold) [1]: 19.8 fold | IA (GABAB agonism) [2]: 0.09 | IA (GABAB positive allosteric modulation) [2]: 0.51
SMILES: C[C@H](c1ccc(Cl)cc1)n1c(=O)c2ccc(Cl)cc2n(CC(C)(C)O)c1=O [Example 117, (R)-7-Chloro-3-(1-(4-chlorophenyl)ethyl)-1-(2-hydroxy-2-methylpropyl)quinazoline-2,4(1H,3H)-dione]

Potentiation of GABA (fold) [1]: 60.4 fold | IA (GABAB agonism) [2]: 0.13 | IA (GABAB positive allosteric modulation) [2]: 0.71
SMILES: CC(C)(O)Cn1c(=O)n(Cc2ccc(Br)cc2)c(=O)c2ccc(Cl)c(F)c21 [Example 123, 3-(4-Bromobenzyl)-7-chloro-8-fluoro-1-(2-hydroxy-2-methylpropyl)quinazoline-2,4(1H,3H)-dione]

Potentiation of GABA (fold) [1]: 6.7 fold | IA (GABAB agonism) [2]: 0.02 | IA (GABAB positive allosteric modulation) [2]: 0.53
SMILES: CC1(C)Cn2c(=O)n(Cc3ccc(Br)cc3)c(=O)c3ccc(Cl)c(c32)O1 [Example 127, 6-(4-Bromobenzyl)-10-chloro-2,2-dimethyl-2H-[1,4]oxazino[2,3,4-ij]quinazoline-5,7(3H,6H)-dione]
